In brackets after ≈: the same amount, converted by molar mass. Read-outs that look alike come from different tables or passages of the source.
What was measured:
PDE5 [1] = biological target: T1, PDE5 (Homo sapiens, UniProt O76074); assay: Phosphodiesterase inhibition IC50 (Table 1); type: biochemical; conditions: PDE5 inhibitor scaffold Compound B
Method: (§1) Phosphodiesterase inhibition was determined by methods known to one of skill in the art.

PAMPA permeability = type: in vitro ADME; conditions: for Papp: PAMPA
Solubility = type: physicochemical
PDE5 [2] = biological target: T1, PDE5; assay: Phosphodiesterase inhibition PDE-5 human; type: biochemical
Method: as §1

Cytotoxicity LC50 = type: cell-based; conditions: Chronic; read-out: Cytotox LC50 Chronic
Cytotoxicity GC50 = type: cell-based
Caco-2 permeability = type: in vitro ADME; conditions: human; for Papp A→B: AtoB; for Papp B→A: BtoA
From the text: Several model systems are available, employing monolayers of various cell types, for evaluation of active transport of pharmaceutically active substances. For example, monolayers of Caco-2 intestinal epithelial cells can be used to evaluate active transport of substances between the intestine and the bloodstream. When plated on a surface which allows the flow of material from apical to basolateral and vice versa, such cells form a biological membrane which can be used to simulate physiological absorption and bio-availability. In another example, mouse brain capillary endothelial cell (MBEC) lines have been established to evaluate active transport in and out of the central nervous system. Another example of such cells is HT29 human colon carcinoma cells. Further, monolayers expressing particular transporter proteins can be established using transfected cells. For example, Sasaki et al (2002) J. Biol. Chem. 8:6497 used a double-transfected Madin-Darby canine kidney cell monolayer to study transport of organic anions.

RLM half-life = type: in vitro ADME; conditions: rat, liver microsomes, read-out: RLM T1/2
Non-specific binding = type: in vitro ADME
Protein binding = type: in vitro ADME; conditions: human, human serum components
Method: In general, protein binding is assessed by measuring the capacity of molecules of the invention to bind to one or more human serum components or mimics thereof. In one embodiment, suitable functional residues may be identified by screening of surfaces comprising such residues for their ability to resist adsorption of serum components, including, but not limited to serum proteins, and preferably human serum proteins. Candidate residues can be screened directly by attaching them to a solid support and testing the support for protein resistance. Alternatively, candidate residues are incorporated into, or linked to molecules of pharmaceutical interest. Such compounds may be synthesized on a solid support, or bound to a solid support after synthesis. In a non-limiting example of a direct binding assay, immobilized candidate functional residues or molecules incorporating such residues are tested for their ability to bind serum components. The serum components can be labeled with a signaling moiety for detection, or a labeled secondary reagent that binds to such serum components can be used.

PDE-1 = assay: Phosphodiesterase inhibition PDE-1; type: biochemical
Method: as §1

PDE-3 = assay: Phosphodiesterase inhibition PDE-3; type: biochemical
Method: as §1

PDE-6 = assay: Phosphodiesterase inhibition PDE-6; type: biochemical
Method: as §1

[3] = pH 2.7, aqueous buffer, pH 2.7, read-out: Solubility pH 2.7
[4] = pH 7.4, aqueous buffer, pH 7.4, read-out: Solubility pH 7.4

Papp A→B (Caco-2 permeability) [×10⁻⁶ cm/s] | Papp B→A (Caco-2 permeability) [×10⁻⁶ cm/s] | Papp (PAMPA permeability; Hex, read-out: PAMPA Hex) [×10⁻⁶ cm/s] | Papp (PAMPA permeability; Lec, read-out: PAMPA Lec) [×10⁻⁶ cm/s] | solubility (Solubility; [3]) [µg/mL] | solubility (Solubility; [4]) [µg/mL] | Non-Spec Binding (Non-specific binding) [%] | fraction unbound (Protein binding) | IC50 (PDE-1) [nM] | IC50 (PDE-3) [nM] | IC50 (PDE-6) [nM] | SMILES | IC50 (PDE5 [1]) [nM] | PAMPA Hex (PAMPA permeability; Hex) | Solubility pH 2.7 (Solubility; pH 2.7) [ug/mL] | Solubility pH 7.4 (Solubility; pH 7.4) [ug/mL] | IC50 (PDE5 [2]) [nM] | CC50 (Cytotoxicity LC50) [nM] | Cytotox GC50 (Cytotoxicity GC50) [nM] | half-life (RLM half-life) [h]
– | – | 67 | – | 77.9 (≈ 146 µM) | 78.5 (≈ 147 µM) | – | – | – | – | – | CCCc1nc(C)c2c(=O)[nH]c(-c3cc(S(=O)(=O)N(CC)CC(=O)N(CC)CC)ccc3OCC)nn12 [Compound 10] | – | – | – | – | – | – | – | –
42 | 77.4 | 21.8 | – | > 100 | > 100 | 19 | 0.024 | – | – | – | CCCc1nc(C)c2c(=O)[nH]c(-c3cc(S(=O)(=O)N(C)CC(=O)N(CC)CC)ccc3OCC)nn12 [Compound 8] | – | – | – | – | – | – | – | –
5.15 | 31.4 | 0.24 | – | > 100 | > 100 | – | – | – | – | – | CCCc1nc(C)c2c(=O)[nH]c(-c3cc(S(=O)(=O)N(C)CC(=O)NC)ccc3OCC)nn12 [Compound 21] | – | – | – | – | – | – | – | –
2.33 | 11.3 | 0.03 | – | > 100 | > 100 | 9.8 | 0.246 | – | – | – | CCCc1nc(C)c2c(=O)[nH]c(-c3cc(S(=O)(=O)N(C)CC(=O)N(C)CCN(C)C)ccc3OCC)nn12 [Compound 9] | – | – | – | – | – | – | – | –
33.4 | 50.4 | 13.9 | – | 96 (≈ 190 µM) | 100 (≈ 198 µM) | 30.7 | 0.058 | – | – | – | CCCc1nc(C)c2c(=O)[nH]c(-c3cc(S(=O)(=O)N(C)[C@@H](C)C(=O)N(C)C)ccc3OCC)nn12 [Compound 12] | – | – | – | – | – | – | 99300 | –
4.35 | 35.6 | 0.18 | – | > 100 | > 100 | 2.6 | 0.155 | – | – | – | CCCc1nc(C)c2c(=O)[nH]c(-c3cc(S(=O)(=O)N(C)CC(=O)N4CCN(C)CC4)ccc3OCC)nn12 [Compound 7] | – | – | – | – | – | – | – | –
11.4 | 63.3 | 1.45 | – | 66.7 (≈ 125 µM) | 70.9 (≈ 133 µM) | 0 | 0.042 | – | – | – | CCCc1nc(C)c2c(=O)[nH]c(-c3cc(S(=O)(=O)N(C)CC(=O)N(C)CCOC)ccc3OCC)nn12 [Compound 11] | 0.15 | – | – | – | 0.15 | – | – | –

More lines, now with the values behind:

SMILES | Papp A→B (Caco-2 permeability) [×10⁻⁶ cm/s] | Papp B→A (Caco-2 permeability) [×10⁻⁶ cm/s] | Papp (PAMPA permeability; Hex, read-out: PAMPA Hex) [×10⁻⁶ cm/s] | Papp (PAMPA permeability; Lec, read-out: PAMPA Lec) [×10⁻⁶ cm/s] | solubility (Solubility; [3]) [µg/mL] | solubility (Solubility; [4]) [µg/mL] | Non-Spec Binding (Non-specific binding) [%] | fraction unbound (Protein binding) | IC50 (PDE-1) [nM] | IC50 (PDE-3) [nM] | IC50 (PDE-6) [nM] | IC50 (PDE5 [1]) [nM] | PAMPA Hex (PAMPA permeability; Hex) | Solubility pH 2.7 (Solubility; pH 2.7) [ug/mL] | Solubility pH 7.4 (Solubility; pH 7.4) [ug/mL] | IC50 (PDE5 [2]) [nM] | CC50 (Cytotoxicity LC50) [nM] | Cytotox GC50 (Cytotoxicity GC50) [nM] | half-life (RLM half-life) [h]
CCCc1nc(C)c2c(=O)[nH]c(-c3cc(S(=O)(=O)NC(C)C(=O)N(C)C)ccc3OCC)nn12 (stereo not shown) [Compound 18] | – | – | – | – | – | – | – | – | – | – | – | 0.36 | 0.18 10^−6 cm/s | 70.3 | 75.75 | 0.36 | 100000 | 100000 | –
CCCc1nc(C)c2c(=O)[nH]c(-c3cc(S(=O)(=O)NC)ccc3OCC)nn12 [Compound 20] | 24.3 | 53 | 0.37 | 0.00384 | > 100 | > 100 | 16.23 | 0.0397 | 28 | 1010 | 4.18 | 0.24 | – | – | – | 0.243 | 100000 | 100000 | 1
CCCc1nc(C)c2c(=O)[nH]c(-c3cc(S(=O)(=O)N(C)C(C)(C)C(=O)NC)ccc3OCC)nn12 [Compound 15] | 6.8 | 34.9 | 0.25 | – | – | – | – | – | – | – | – | – | – | – | – | – | 100000 | 95000 | –
CCCc1nc(C)c2c(=O)[nH]c(-c3cc(S(=O)(=O)N(C)[C@H](C)C(=O)N(C)C)ccc3OCC)nn12 [Compound 2] | 33.3 | 61.3 | 18.2 | – | > 100 | > 100 | 20.7 | 0.032 | – | – | – | – | – | – | – | – | – | 94600 | –
CCCc1nc(C)c2c(=O)[nH]c(-c3cc(S(=O)(=O)N(C)CC(=O)N4CCOCC4)ccc3OCC)nn12 [Compound 6] | 11.2 | 55.1 | 0.78 | – | > 100 | > 100 | 7.3 | 0.084 | – | – | – | – | – | – | – | – | – | – | –
CCCc1nc(C)c2c(=O)[nH]c(-c3cc(S(=O)(=O)N4CCCC4C(=O)N(C)C)ccc3OCC)nn12 (stereo not shown) [Compound 5] | 19.4 | 60.2 | 13.2 | – | 100 (≈ 194 µM) | 93 (≈ 180 µM) | – | – | – | – | – | – | – | – | – | – | – | – | –
CCCc1nc(C)c2c(=O)[nH]c(-c3cc(S(=O)(=O)NC(C)C(=O)N(C)C)ccc3OCC)nn12 (stereo not shown) [Compound 17] | – | – | 0.26 | – | 70 (≈ 143 µM) | 78.4 (≈ 160 µM) | – | – | – | – | – | 0.66 | – | – | – | 0.66 | 100000 | 100000 | –
CCCc1nc(C)c2c(=O)[nH]c(-c3cc(S(=O)(=O)N(C)[C@H](C)C(=O)NC)ccc3OCC)nn12 [Compound 14] | – | – | 0.47 | – | 62.6 (≈ 128 µM) | 64 (≈ 130 µM) | – | – | – | – | – | – | – | – | – | – | 100000 | 88000 | –
CCCc1nc(C)c2c(=O)[nH]c(-c3cc(S(=O)(=O)N(C)C4(C(=O)N(C)C)CC4)ccc3OCC)nn12 [Compound 16] | – | – | 3.41 | – | 74.7 (≈ 145 µM) | 82.5 (≈ 160 µM) | – | – | – | – | – | – | – | – | – | – | 100000 | 100000 | –
CCCc1nc(C)c2c(=O)[nH]c(-c3cc(S(=O)(=O)N(C)C(C)(C)C(=O)N(C)C)ccc3OCC)nn12 [Compound 3] | 28.9 | 58.5 | 9.11 | – | > 100 | > 100 | 14.3 | 0.076 | 10 | 412 | 1.7 | – | – | – | – | – | – | 100000 | –
CCCc1nc(C)c2c(=O)[nH]c(-c3cc(S(=O)(=O)N(C)CC(=O)N(C)C)ccc3OCC)nn12 [Compound 1] | 17.5 | 48.9 | 5.49 | 0.128 | > 100 | 96.1 (≈ 196 µM) | 11.07 | 0.086 | 25 | 986 | 3.5 | – | – | – | – | – | – | 76700 | –
CCCc1nc(C)c2c(=O)[nH]c(-c3cc(S(=O)(=O)NC(C)(C)C(=O)N(C)C)ccc3OCC)nn12 [Compound 19] | 2.43 | 33 | 0.17 | – | > 100 | 7.1 (≈ 14.1 µM) | – | – | – | – | – | – | – | – | – | – | 100000 | 100000 | –
CCCc1nc(C)c2c(=O)[nH]c(-c3cc(S(=O)(=O)N(C)[C@@H](C)C(=O)NC)ccc3OCC)nn12 [Compound 13] | – | – | 0.42 | – | 69.4 (≈ 141 µM) | 74.6 (≈ 152 µM) | – | – | – | – | – | – | – | – | – | – | 100000 | 94000 | –
CCCc1nc(C)c2c(=O)[nH]c(-c3cc(S(=O)(=O)N(C)CC(=O)N(C)CC(=O)N(C)C)ccc3OCC)nn12 [Compound 4] | 2.97 | 25.9 | 0.47 | 0.056 | 112 (≈ 199 µM) | 109 (≈ 194 µM) | 7 | 0.18 | – | – | – | – | – | – | – | – | – | – | –

Source: patent publication US20110172422A1, “Methods of Making Pharmacokinetically Improved Compounds Comprising Functional Residues or Groups and Pharmaceutical Compositions Comprising Said Compounds” (SURFACE LOGIX, INC., priority 2005, published 2011)
